Results from PMC4676015, “Variant fatty acid-like molecules Conjugation, novel approaches for extending the stability of therapeutic peptides” (Scientific Reports, 2015).

Experiments:
GLP-1 receptor (GLP-1R) = target: T1, GLP-1 receptor (GLP-1R) (Rattus norvegicus, UniProt P32301); assay: GLP-1 receptor binding assay (cellular ELISA)
T1 construct: endogenous in cells; host or cells: rat INS-1 cells
T1 sequence (P32301 22-463): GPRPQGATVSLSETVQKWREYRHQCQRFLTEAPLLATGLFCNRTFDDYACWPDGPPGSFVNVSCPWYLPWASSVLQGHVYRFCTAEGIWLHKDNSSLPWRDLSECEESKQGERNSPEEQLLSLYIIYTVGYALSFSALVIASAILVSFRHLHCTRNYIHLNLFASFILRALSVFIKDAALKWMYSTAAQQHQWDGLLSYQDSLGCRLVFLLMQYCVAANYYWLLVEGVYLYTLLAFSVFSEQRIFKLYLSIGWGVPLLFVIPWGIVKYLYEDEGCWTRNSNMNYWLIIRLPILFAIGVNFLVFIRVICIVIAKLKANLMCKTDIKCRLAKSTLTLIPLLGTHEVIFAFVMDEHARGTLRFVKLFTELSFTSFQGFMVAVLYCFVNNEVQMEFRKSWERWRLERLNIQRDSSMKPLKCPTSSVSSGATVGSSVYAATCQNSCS
Procedure, shortened: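 Cells were fixed with 4% paraformaldehyde, quenched with 2% glycine (pH 7.5), then incubated with peptides for 2 h at 37 °C, washed and blocked with 5% BSA. Absorbance was read at 450 nm. Kd was fitted from peptide concentration versus absorbance.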

DPP IV enzyme = target: T2, DPP IV enzyme (Homo sapiens, UniProt P27487); assay: Stability against DPP IV proteolysis with or without HSA; type: in vitro ADME; conditions: for detectability of full-length peptide at 24 h / degradation in DPP IV proteolysis compared with wild-type GLP-1, within 24 h: DPP IV 0.1 mg/ml, peptide 1 mg/ml; for detectability of full-length peptide at 24 h: pH 7.0, in the presence of human serum albumin (2%); for degradation in DPP IV proteolysis compared with wild-type GLP-1, within 24 h: 25 mM potassium phosphate, 25 mM KCl, 5 mM MgCl2, pH 7.0, 2% HSA
T2 construct: purchased Sigma-Aldrich
Experimental: DPP IV enzyme (0.1 mg/ml) was dissolved in 25 mM potassium phosphate buffer containing 25 mM potassium chloride and 5 mM magnesium chloride, pH 7.0.

[1] = Blood retention time measurement; conditions: 500 μg/kg s.c., Wistar rats, n = 5, GLP-1 (7–37) ELISA
[2] = DPP IV proteolysis solution, 37 °C, GLP-1 (7–37) ELISA, P < 0.01

T2 sequence (P27487 whole entry, species assumed): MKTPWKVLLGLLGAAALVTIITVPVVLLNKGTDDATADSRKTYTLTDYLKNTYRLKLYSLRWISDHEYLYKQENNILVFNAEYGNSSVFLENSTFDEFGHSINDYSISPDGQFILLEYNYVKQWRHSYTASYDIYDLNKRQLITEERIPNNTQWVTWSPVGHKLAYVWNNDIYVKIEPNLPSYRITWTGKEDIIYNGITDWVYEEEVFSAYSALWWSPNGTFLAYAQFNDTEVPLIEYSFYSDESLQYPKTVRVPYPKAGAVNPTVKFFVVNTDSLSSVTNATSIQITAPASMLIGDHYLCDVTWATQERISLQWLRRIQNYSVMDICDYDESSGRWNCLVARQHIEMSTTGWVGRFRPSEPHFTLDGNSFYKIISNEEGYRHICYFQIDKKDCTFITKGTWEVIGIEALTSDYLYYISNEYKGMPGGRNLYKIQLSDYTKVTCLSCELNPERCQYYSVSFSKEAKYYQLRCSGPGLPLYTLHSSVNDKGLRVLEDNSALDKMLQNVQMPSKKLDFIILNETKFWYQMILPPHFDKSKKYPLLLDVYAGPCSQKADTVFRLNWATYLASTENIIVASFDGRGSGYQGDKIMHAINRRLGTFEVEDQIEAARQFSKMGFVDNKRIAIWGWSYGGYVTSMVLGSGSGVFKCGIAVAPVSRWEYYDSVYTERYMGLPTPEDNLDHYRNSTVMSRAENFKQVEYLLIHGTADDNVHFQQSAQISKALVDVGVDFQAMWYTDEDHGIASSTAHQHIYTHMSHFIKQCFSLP

Kd (GLP-1 receptor (GLP-1R)) [nM] | detectability of full-length peptide at 24 h (DPP IV enzyme; 37 °C, GLP-1 (7–37) ELISA) | AUCGLP-1(7–37) in proteolysis solution compared to native GLP-1 (DPP IV enzyme; [2]) | degradation in DPP IV proteolysis compared with wild-type GLP-1, within 24 h (DPP IV enzyme; 37 °C, GLP-1 (7–37) ELISA) | increase of circulating amount (AUC GLP-1 (7-37)) compared with native GLP-1 ([1]; 0.5-96 h) [fold] | blood retention / serum level behaviour [1] | AUC0–24 h, amount of undigested GLP-1 fragments compared with wild-type GLP-1 (DPP IV enzyme; DPP IV proteolysis solution, 37 °C, 0-24 h, GLP-1 (7–37) ELISA, P < 0.01) | degradation rate against DPP IV compared with compounds 6 and 21, respectively (DPP IV enzyme; DPP IV proteolysis, same carbon chain length without free carboxyl group as comparator) | Compound
17.5 ± 2.75 | still detectable at 24 h | significantly increased |  |  |  |  |  | CCCCCCCCCCCCCCCCNC(=O)C[C@H](NC(=O)[C@@H](NC(=O)[C@H](CC(C)C)NC(=O)[C@H](Cc1c[nH]c2ccccc12)NC(=O)[C@H](C)NC(=O)[C@@H](NC(=O)[C@H](Cc1ccccc1)NC(=O)[C@H](CCC(=O)O)NC(=O)[C@H](CCCCN)NC(=O)[C@H](C)NC(=O)[C@H](C)NC(=O)[C@H](CCC(N)=O)NC(=O)CNC(=O)[C@H](CCC(=O)O)NC(=O)[C@H](CC(C)C)NC(=O)[C@H](Cc1ccc(O)cc1)NC(=O)[C@H](CO)NC(=O)[C@H](CO)NC(=O)[C@@H](NC(=O)[C@H](CC(=O)O)NC(=O)[C@H](CO)NC(=O)[C@@H](NC(=O)[C@H](Cc1ccccc1)NC(=O)[C@@H](NC(=O)CNC(=O)[C@H](CCC(=O)O)NC(=O)[C@H](C)NC(=O)[C@@H](N)Cc1c[nH]cn1)[C@@H](C)O)[C@@H](C)O)C(C)C)[C@@H](C)CC)C(C)C)C(=O)NCC(=O)N[C@@H](CCCNC(=N)N)C(=O)NCC(=O)O [compound 21]
18.7 ± 2.13 | still detectable at 24 h |  | slower degradation rates |  |  |  |  | CCCCCCCCCCCCNC(=O)CC[C@H](NC(=O)[C@H](CCCCN)NC(=O)[C@H](C)NC(=O)[C@H](C)NC(=O)[C@H](CCC(N)=O)NC(=O)CNC(=O)[C@H](CCC(=O)O)NC(=O)[C@H](CC(C)C)NC(=O)[C@H](Cc1ccc(O)cc1)NC(=O)[C@H](CO)NC(=O)[C@H](CO)NC(=O)[C@@H](NC(=O)[C@H](CC(=O)O)NC(=O)[C@H](CO)NC(=O)[C@@H](NC(=O)[C@H](Cc1ccccc1)NC(=O)[C@@H](NC(=O)CNC(=O)[C@H](CCC(=O)O)NC(=O)[C@H](C)NC(=O)[C@@H](N)Cc1c[nH]cn1)[C@@H](C)O)[C@@H](C)O)C(C)C)C(=O)N[C@@H](Cc1ccccc1)C(=O)N[C@H](C(=O)N[C@@H](C)C(=O)N[C@@H](Cc1c[nH]c2ccccc12)C(=O)N[C@@H](CC(C)C)C(=O)N[C@H](C(=O)N[C@@H](CCCCN)C(=O)NCC(=O)N[C@@H](CCCNC(=N)N)C(=O)NCC(=O)O)C(C)C)[C@@H](C)CC [compound 17]
21.1 ± 2.34 | still detectable at 24 h | significantly increased |  | 2.6 | extended the stabilities in vivo | approximately 3.5 fold | significantly lower degradation rates | CC[C@H](C)[C@H](NC(=O)[C@H](Cc1ccccc1)NC(=O)[C@H](CCC(=O)O)NC(=O)[C@H](CCCCN)NC(=O)[C@H](C)NC(=O)[C@H](C)NC(=O)[C@H](CCC(N)=O)NC(=O)CNC(=O)[C@H](CCC(=O)O)NC(=O)[C@H](CC(C)C)NC(=O)[C@H](Cc1ccc(O)cc1)NC(=O)[C@H](CO)NC(=O)[C@H](CO)NC(=O)[C@@H](NC(=O)[C@H](CC(=O)O)NC(=O)[C@H](CO)NC(=O)[C@@H](NC(=O)[C@H](Cc1ccccc1)NC(=O)[C@@H](NC(=O)CNC(=O)[C@H](CCC(=O)O)NC(=O)[C@H](C)NC(=O)[C@@H](N)Cc1c[nH]cn1)[C@@H](C)O)[C@@H](C)O)C(C)C)C(=O)N[C@@H](C)C(=O)N[C@@H](Cc1c[nH]c2ccccc12)C(=O)N[C@@H](CC(C)C)C(=O)N[C@H](C(=O)N[C@@H](CC(=O)NCCCCCCCCCCCC(=O)O)C(=O)NCC(=O)N[C@@H](CCCNC(=N)N)C(=O)NCC(=O)O)C(C)C [compound 22]
13.7 ± 0.88 | still detectable at 24 h |  | slower degradation rates |  |  |  |  | CCCCCCCCCCCCCCCC(=O)NCCCC[C@H](NC(=O)[C@@H](NC(=O)[C@H](CC(C)C)NC(=O)[C@H](Cc1c[nH]c2ccccc12)NC(=O)[C@H](C)NC(=O)[C@@H](NC(=O)[C@H](Cc1ccccc1)NC(=O)[C@H](CCC(=O)O)NC(=O)[C@H](CCCCN)NC(=O)[C@H](C)NC(=O)[C@H](C)NC(=O)[C@H](CCC(N)=O)NC(=O)CNC(=O)[C@H](CCC(=O)O)NC(=O)[C@H](CC(C)C)NC(=O)[C@H](Cc1ccc(O)cc1)NC(=O)[C@H](CO)NC(=O)[C@H](CO)NC(=O)[C@@H](NC(=O)[C@H](CC(=O)O)NC(=O)[C@H](CO)NC(=O)[C@@H](NC(=O)[C@H](Cc1ccccc1)NC(=O)[C@@H](NC(=O)CNC(=O)[C@H](CCC(=O)O)NC(=O)[C@H](C)NC(=O)[C@@H](N)Cc1c[nH]cn1)[C@@H](C)O)[C@@H](C)O)C(C)C)[C@@H](C)CC)C(C)C)C(=O)NCC(=O)N[C@@H](CCCNC(=N)N)C(=O)NCC(=O)O [compound 6]
24.3 ± 1.96 | still detectable at 24 h | significantly increased |  |  |  |  |  | CC[C@H](C)[C@H](NC(=O)[C@H](Cc1ccccc1)NC(=O)[C@H](CCC(=O)O)NC(=O)[C@H](CCCCN)NC(=O)[C@H](C)NC(=O)[C@H](C)NC(=O)[C@H](CCC(N)=O)NC(=O)CNC(=O)[C@H](CCC(=O)NCCCCCCCCCCCC(=O)O)NC(=O)[C@H](CC(C)C)NC(=O)[C@H](Cc1ccc(O)cc1)NC(=O)[C@H](CO)NC(=O)[C@H](CO)NC(=O)[C@@H](NC(=O)[C@H](CC(=O)O)NC(=O)[C@H](CO)NC(=O)[C@@H](NC(=O)[C@H](Cc1ccccc1)NC(=O)[C@@H](NC(=O)CNC(=O)[C@H](CCC(=O)O)NC(=O)[C@H](C)NC(=O)[C@@H](N)Cc1c[nH]cn1)[C@@H](C)O)[C@@H](C)O)C(C)C)C(=O)N[C@@H](C)C(=O)N[C@@H](Cc1c[nH]c2ccccc12)C(=O)N[C@@H](CC(C)C)C(=O)N[C@H](C(=O)N[C@@H](CCCCN)C(=O)NCC(=O)N[C@@H](CCCNC(=N)N)C(=O)NCC(=O)O)C(C)C [compound 23]
16.5 ± 2.17 | still detectable at 24 h |  | slower degradation rates |  |  |  |  | CCCCCCCCCCCCCCCCNC(=O)CC[C@H](NC(=O)[C@H](CCCCN)NC(=O)[C@H](C)NC(=O)[C@H](C)NC(=O)[C@H](CCC(N)=O)NC(=O)CNC(=O)[C@H](CCC(=O)O)NC(=O)[C@H](CC(C)C)NC(=O)[C@H](Cc1ccc(O)cc1)NC(=O)[C@H](CO)NC(=O)[C@H](CO)NC(=O)[C@@H](NC(=O)[C@H](CC(=O)O)NC(=O)[C@H](CO)NC(=O)[C@@H](NC(=O)[C@H](Cc1ccccc1)NC(=O)[C@@H](NC(=O)CNC(=O)[C@H](CCC(=O)O)NC(=O)[C@H](C)NC(=O)[C@@H](N)Cc1c[nH]cn1)[C@@H](C)O)[C@@H](C)O)C(C)C)C(=O)N[C@@H](Cc1ccccc1)C(=O)N[C@H](C(=O)N[C@@H](C)C(=O)N[C@@H](Cc1c[nH]c2ccccc12)C(=O)N[C@@H](CC(C)C)C(=O)N[C@H](C(=O)N[C@@H](CCCCN)C(=O)NCC(=O)N[C@@H](CCCNC(=N)N)C(=O)NCC(=O)O)C(C)C)[C@@H](C)CC [compound 18]
 | still detectable at 24 h |  | slower degradation rates |  |  |  |  | CCCCCCCCCCCCCCCCNC(=O)CC[C@H](NC(=O)[C@H](CC(C)C)NC(=O)[C@H](Cc1ccc(O)cc1)NC(=O)[C@H](CO)NC(=O)[C@H](CO)NC(=O)[C@@H](NC(=O)[C@H](CC(=O)O)NC(=O)[C@H](CO)NC(=O)[C@@H](NC(=O)[C@H](Cc1ccccc1)NC(=O)[C@@H](NC(=O)CNC(=O)[C@H](CCC(=O)O)NC(=O)[C@H](C)NC(=O)[C@@H](N)Cc1c[nH]cn1)[C@@H](C)O)[C@@H](C)O)C(C)C)C(=O)NCC(=O)N[C@@H](CCC(N)=O)C(=O)N[C@@H](C)C(=O)N[C@@H](C)C(=O)N[C@@H](CCCCN)C(=O)N[C@@H](CCC(=O)O)C(=O)N[C@@H](Cc1ccccc1)C(=O)N[C@H](C(=O)N[C@@H](C)C(=O)N[C@@H](Cc1c[nH]c2ccccc12)C(=O)N[C@@H](CC(C)C)C(=O)N[C@H](C(=O)N[C@@H](CCCCN)C(=O)NCC(=O)N[C@@H](CCCNC(=N)N)C(=O)NCC(=O)O)C(C)C)[C@@H](C)CC [compound 15]
